Assay results as given in patent US6525059B1, “Substituted pyrazoles as p38 kinase inhibitors” (G. D. Searle & Company, priority 1998, dated 2003).
Where “and” joins values, the source holds several entries; their conditions need not be identical. Equal values may be shown once. Where a name gives a salt, the structure may show the parent alone. Read-outs that look alike come from different tables or passages of the source.

Experiments:
[1] = target: T1, human GST-p38 kinase alpha (Homo sapiens, UniProt Q16539); experiment: p38 kinase in vitro assay, second format, phosphorylation of EGFRP with 33P-ATP; type: biochemical
T1 construct: The coding region of the human p38a cDNA was obtained by PCR-amplification from RNA isolated from the human monocyte cell line THP.1; made in house; host or cells: E. coli DH10B
T1 sequence (Q16539 whole entry): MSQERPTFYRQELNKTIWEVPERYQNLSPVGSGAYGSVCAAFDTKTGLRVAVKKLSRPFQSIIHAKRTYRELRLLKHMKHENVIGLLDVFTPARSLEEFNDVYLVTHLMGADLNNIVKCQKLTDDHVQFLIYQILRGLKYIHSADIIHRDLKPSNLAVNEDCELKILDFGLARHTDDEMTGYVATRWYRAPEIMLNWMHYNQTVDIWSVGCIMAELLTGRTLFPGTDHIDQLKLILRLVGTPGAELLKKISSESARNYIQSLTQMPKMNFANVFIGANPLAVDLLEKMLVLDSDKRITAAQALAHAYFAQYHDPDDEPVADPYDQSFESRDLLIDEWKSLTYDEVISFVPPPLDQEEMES
Method: A second assay format was also employed that is based on p38 kinase alpha induced phosphorylation of EGFRP (epidermal growth factor receptor peptide, a 21 mer) in the presence of ^33P-ATP. Compounds were tested in 10 fold serial dilutions over the range of 100 μM to 0.001 μM in 10% DMSO. Each concentration of inhibitor was tested in triplicate. Compounds were evaluated in 50 μl reaction volumes in the presence of 25 mM Hepes pH 7.5, 10 mM magnesium acetate, 4% glycerol, 0.4% bovine serum albumin, 0.4 mM DTT, 50 μM unlabeled ATP, 25 μg EGFRP (200 μM), and 0.05 uCi gamma ^33P-ATP. Reactions were initiated by addition of 0.09 μg of activated, purified human GST-p38 kinase alpha. Activation was carried out using GST-MKK6 (5:1, p38: MKK6) for one hour at 30° C. in the presence of 50 μM ATP. Following incubation for 60 minutes at room temperature, the reaction was stopped by addition of 150 μl of AG 1×8 resin in 900 mM sodium formate buffer, pH 3.0 (1 volume resin to 2 volumes buffer). The mixture was mixed three times with pipetting and the resin was allowed to settle. A total of 50 μl of clarified solution head volume was transferred from the reaction wells to Microlite-2 plates. 150 μl of Microscint 40 was then added to each well of the Microlite plate, and the plate was sealed, mixed, and counted.

human p38 kinase alpha = target: T2, human p38 kinase alpha (Homo sapiens, UniProt Q16539); experiment: p38 kinase in vitro assay, phosphorylation of biotinylated PHAS-I with gamma 32P-ATP; type: biochemical
T2 construct: The coding region of the human p38a cDNA was obtained by PCR-amplification from RNA isolated from the human monocyte cell line THP.1; GST (N); made in house; host or cells: E. coli DH10B
T2 sequence (Q16539 whole entry): as above
Summary of the method: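 MKK6-activated human p38α phosphorylates biotinylated PHAS-I with γ-32P-ATP in 25 mM HEPES pH 7.5, 10 mM Mg acetate, 50 μM unlabeled ATP, 1% DMSO, 30 °C for 1 h or overnight. Compounds at 100–0.001 μM (10-fold steps, triplicate); substrate captured on streptavidin filter plates and counted by scintillation.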

TNF-α [2] = experiment: LPS stimulation of TNF production by U937 cells; type: cell-based, human; conditions: Homo sapiens; for inhibition at 1 µM: U-937, @ 1.0 uM, read-out: U937 Cell % inhib @ conc.
Summary of the method: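 PMA-differentiated human U937 cells (20 ng/ml PMA, 24 h, then 24-48 h rest) at 2 million cells/ml, 0.1% DMSO final, stimulated with E. coli LPS (100 ng/ml final) for 4 h at 37° C. TNF-α in medium measured by ELISA; IC50 in μM.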

TNF-α [3] = experiment: Rat assay: LPS-challenged rats, serum TNF-α by ELISA; type: in vivo; conditions: Rattus norvegicus, po
Method: The efficacy of the novel compounds in blocking the production of TNF also was evaluated using a model based on rats challenged with LPS. Male Harlen Lewis rats [Sprague Dawley Co.] were used in this model. Each rat weighed approximately 300 g and was fasted overnight prior to testing. Compounds administration was typically by oral gavage (although intraperitoneal, subcutaneous and intravenous administration were also used in a few instances) 1 to 24 hours prior to the LPS challenge. Rats were administered 30 μg/kg LPS [salmonella typhosa, Sigma Co.] intravenously via the tail vein. Blood was collected via heart puncture 1 hour after the LPS challenge. Serum samples were stored at −20° C. until quantitative analysis of TNF-α by Enzyme Linked-Immuno-Sorbent Assay (“ELISA”) [Biosource]. Additional details of the assay are set forth in Perretti, M., et al., Br. J. Pharmacol. (1993), 110, 868-874, which is incorporated by reference in this application.
In vivo assessment of the ability of the compounds to inhibit LPS-stimulated TNF release in the rat is shown in the column identified as:
wherein in the dose is milligram per kilogram (mpk) administered by oral gavage and the predose time indicates the number of hours before LPS challenge when the compound is administered.

[4] = Table 10, 10% DMSO, @ 1.0 hour, read-out: p38α Kinase Assay IC50
[5] = p38α in vitro, EGFRP assay procedure, read-out: p38^2 IC50
[6] = U-937, LPS-stimulated U937 cells, read-out: U937 IC50
[7] = -4 h, 3 mpk oral gavage, -4h before LPS, read-out: Rat LPS Model % inhib @ dose @ predose time
[8] = read-out: P38 alpha kinase IC50
[9] = Table 8, 10% DMSO, read-out: p38α Kinase Assay IC50
[10] = U-937, TNF production, LPS-stimulated human U937 cells, read-out: U937 Cell IC50

`O=C(C(=C1SCS1)c1ccncc1)c1ccc(OC(F)(F)F)cc1` [Example A-395] was tested, and the IC50 [1, 4] was over 100000 nM.
`Fc1cc(-c2c[nH]nc2-c2ccc(F)c(F)c2)ccn1` [Example A-257, 4-[3-(3,4-difluorophenyl)-1H-pyrazol-4-yl]-2-fluoropyridine] gave an IC50 [1, 5] of under 10 nM, an IC50 (human p38 kinase alpha; p38α in vitro, PHAS-I assay procedure, read-out: p38^1 IC50) of 1080 nM and an IC50 (TNF-α [2]; [6]) of 517 nM.
For `C[C@@H](NS(=O)(=O)c1ccc(C#N)cc1)c1[nH]nc(-c2ccc(F)cc2)c1-c1ccncc1` [Example B-0479], the inhibition in vivo at 3 mg/kg (TNF-α [3]; [7]) was 15%, the IC50 (human p38 kinase alpha; [8]) was 31 nM and the inhibition at 1 µM (TNF-α [2]) was 90%.
`CS(=O)(=O)N1CCN(c2n[nH]c(-c3ccc(Cl)cc3)c2-c2ccncc2)CC1` [Example A-320, 1-[5-(4-chlorophenyl)-4-(4-pyridinyl)-1H-pyrazol-3-yl]-4-(methylsulfonyl)piperazine, monohydrate] was tested, and the inhibition in vivo at 3 mg/kg (TNF-α [3]; Table 8, dose 3.0 mg/kg, read-out: Rat LPS Assay % Inhibition) was 1% and the IC50 [1, 9] was 50 nM and 150 nM.
Molecule `C[C@@H](NS(=O)(=O)c1ccc(F)c(Cl)c1)c1[nH]nc(-c2ccc(F)cc2)c1-c1ccncc1` [Example B-0466] has an inhibition in vivo at 3 mg/kg (TNF-α [3]; [7]) of 0% and an inhibition at 1 µM (TNF-α [2]) of 98%.
Work on `O=C(O)C(Cc1cnc[nH]1)Sc1[nH]nc(-c2ccc(Cl)cc2)c1-c1ccncc1` (stereo not drawn) [Example A-471] yielded an IC50 [1, 4] of 4920 nM.
For `O=C1CCC(Nc2cc(-c3c[nH]nc3-c3ccc(F)cc3)ccn2)CC1` [Example A-387, 4-[[4-[3-(4-fluorophenyl)-1H-pyrazol-4-yl]-2-pyridinyl]amino]cyclohexanone], the inhibition in vivo at 20 mg/kg (TNF-α [3]; Table 9, dose 20 mg/kg) was 83% and the IC50 ([1]; Table 9, 10% DMSO, read-out: p38α Kinase Assay IC50) was 5 nM.
For `Cc1cccc(-c2nn(C)cc2-c2ccnc(C)c2)c1` [Example A-235, 2-methyl-4-[1-methyl-3 (or 5)-(3-methylphenyl)-1H-pyrazol-4-yl]pyridine], the IC50 [1, 5] was 104 nM.
`Cn1cc(-c2ccnc(F)c2)c(-c2ccc(F)cc2)n1` [Example A-256, 2-fluoro-4-[3-(4-fluorophenyl)-1-methyl-1H-pyrazol-4-yl]pyridine] was tested, and the IC50 [1, 5] was 813 nM and the IC50 (TNF-α [2]; [6]) was 456 nM.
In the case of `O=C(c1n[nH]c(-c2ccc(F)cc2)c1-c1ccncc1)N1CCNCC1` [A-314, Step 1, 1-[[5-(4-fluorophenyl)-4-(4-pyridinyl)-1H-pyrazol-3-yl]carbonyl]piperazine, monhydrate], the IC50 [1, 9] is reported as 370 nM.
With `COc1ccccc1N1CCN(c2n[nH]c(-c3ccc(Cl)cc3)c2-c2ccncc2)CC1` [Example A-336, 1-[5-(4-chlorophenyl)-4-(4-pyridinyl)-1H-pyrazol-3-yl]-4-(2-methoxyphenyl)piperazine] the IC50 [1, 9] was 1160 nM.
`CN(C)CC(=O)N1CCC(c2[nH]nc(-c3ccc(Cl)cc3)c2-c2ccncc2)CC1` [Example C-122] showed an inhibition in vivo at 5 mg/kg (TNF-α [3]; 5 mpk oral gavage, 4 h before LPS challenge, read-out: Rat LPS Model % Inhibition @ dose @ predose time) of 55% and an IC50 (human p38 kinase alpha; [8]) of 25 nM.
`Fc1ccc(-c2n[nH]cc2-c2ccnc(NCc3cccc(F)c3)c2)cc1` [Example A-254, N-[(3-fluorophenyl)methyl]-4-[3-(4-fluorophenyl)-1H-pyrazol-4-yl]-2-pyridinamine] was tested, and the IC50 [1, 5] was 81 nM and the IC50 (TNF-α [2]; [6]) was 141 nM.
`C[C@@H](NS(=O)(=O)Cc1ccccc1)c1[nH]nc(-c2ccc(F)cc2)c1-c1ccncc1` [Example B-0389] was tested, and the inhibition in vivo at 3 mg/kg (TNF-α [3]; [7]) was 62%, the IC50 (human p38 kinase alpha; [8]) was 10 nM and the IC50 (TNF-α [2]; [10]) was 50 nM.
Work on `CCOC(=O)N[C@H](C)c1[nH]nc(-c2ccc(F)cc2)c1-c1ccncc1` [Example B-0426] yielded an inhibition in vivo at 3 mg/kg (TNF-α [3]; [7]) of 41%, an IC50 (human p38 kinase alpha; [8]) of 55 nM and an IC50 (TNF-α [2]; [10]) of 740 nM.
`Clc1ccc(-c2n[nH]c(SC3CCNCC3)c2-c2ccncc2)cc1` [A-459 (salt)] was tested, and the IC50 [1, 4] was 100 nM.
